Experimental data: patent publication US20040063662A1, “Selenophene anti-tumor agents” (priority 1996, published 2004)

Assays:
[1] = test system: CCRF-CEM; assay: NCI human tumor cell panel: CCRF-CEM (Leukemia); format: cell-based; details: Leukemia
[2] = test system: HL-60(TB); assay: NCI human tumor cell panel: HL-60(TB) (Leukemia); format: cell-based; details: Leukemia, read-out: Log10 GI50 (converted)
[3] = test system: RPMI-8226; assay: NCI human tumor cell panel: RPMI-8226 (Leukemia); format: cell-based; details: RPMI-8226, Leukemia
[4] = test system: NCI-H226; assay: NCI human tumor cell panel: NCI-H226 (Non-Small Cell Lung Cancer); format: cell-based; details: NCI-H226, Non-Small Cell Lung Cancer
[5] = test system: NCI-H322M; assay: cells; format: cell-based; details: Homo sapiens, Non-Small Cell Lung Cancer
[6] = test system: COLO 205; assay: NCI human tumor cell panel: COLO 205 (Colon Cancer); format: cell-based; details: COLO 205, Colon Cancer
[7] = test system: HCC-2998; assay: NCI human tumor cell panel: HCC-2998 (Colon Cancer); format: cell-based; details: HCC-2998, Colon Cancer, read-out: Log10 TGI (converted)
[8] = test system: SF-268; assay: NCI human tumor cell panel: SF-268 (CNS Cancer); format: cell-based; details: SF-268, CNS Cancer
[9] = test system: SF-539; assay: NCI human tumor cell panel: SF-539 (CNS Cancer); format: cell-based; details: SF-539, CNS Cancer
[10] = test system: SNB-19; assay: NCI human tumor cell panel: SNB-19 (CNS Cancer); format: cell-based; details: SNB-19, CNS Cancer
[11] = test system: U251; assay: NCI human tumor cell panel: U251 (CNS Cancer); format: cell-based; details: U-251, U251, CNS Cancer
[12] = test system: M14; assay: NCI human tumor cell panel: M14 (Melanoma); format: cell-based; details: M14, Melanoma
[13] = test system: SK-MEL-2; assay: NCI human tumor cell panel: SK-MEL-2 (Melanoma); format: cell-based; details: SK-MEL-2, Melanoma
[14] = test system: SK-MEL-28; assay: NCI human tumor cell panel: SK-MEL-28 (Melanoma); format: cell-based; details: SK-MEL-28, Melanoma
[15] = test system: SK-MEL-5; assay: NCI human tumor cell panel: SK-MEL-5 (Melanoma); format: cell-based; details: SK-MEL-5, Melanoma
[16] = test system: OVCAR-3; assay: NCI human tumor cell panel: OVCAR-3 (Ovarian Cancer); format: cell-based; details: OVCAR-3, Ovarian Cancer
[17] = test system: SK-OV-3; assay: NCI human tumor cell panel: SK-OV-3 (Ovarian Cancer); format: cell-based; details: SK-OV-3, Ovarian Cancer
[18] = test system: CAKI-1; assay: NCI human tumor cell panel: CAKI-1 (Renal Cancer); format: cell-based; details: CAKI-1, Renal Cancer
[19] = test system: RXF-393; assay: NCI human tumor cell panel: RXF-393 (Renal Cancer); format: cell-based; details: RXF-393, Renal Cancer
[20] = test system: UO-31; assay: NCI human tumor cell panel: UO-31 (Renal Cancer); format: cell-based; details: UO-31, Renal Cancer
[21] = test system: DU-145; assay: NCI human tumor cell panel: DU-145 (Prostate Cancer); format: cell-based; details: DU-145, Prostate Cancer
[22] = test system: MCF7; assay: NCI human tumor cell panel: MCF7 (Breast Cancer); format: cell-based; details: MCF7, Breast Cancer
[23] = test system: MDA-MB-231/ATCC; assay: NCI human tumor cell panel: MDA-MB-231/ATCC (Breast Cancer); format: cell-based; details: Homo sapiens, MDA-MB-231, MDA-MB-231/ATCC, Breast Cancer
[24] = test system: MDA-MB-435; assay: NCI human tumor cell panel: MDA-MB-435 (Breast Cancer); format: cell-based; details: MDA-MB-435, Breast Cancer
[25] = test system: MDA-N; assay: NCI human tumor cell panel: MDA-N (Breast Cancer); format: cell-based; details: Breast Cancer
[26] = test system: T-47D; assay: NCI human tumor cell panel: T-47D (Breast Cancer); format: cell-based; details: T47D, Breast Cancer, read-out: Log10 TGI (converted)
[27] = test system: NCI-H522; assay: NCI human tumor cell panel: NCI-H522 (Non-Small Cell Lung Cancer)
[28] = test system: panel of sixty different human tumor cell lines; assay: NCI human tumor cell panel: whole panel (mean graph summary); details: Homo sapiens
[29] = read-out: Log10 GI50 (converted)
[30] = read-out: Log10 TGI (converted)

## O=Cc1ccc(-c2ccc(-c3ccc(C=O)[se]3)s2)[se]1 [NSC 676630]
[1]; [29]
  GI50: > 100 µM
[1]; [30]
  IC (TGI): > 100 µM
[2]
  GI50: > 100 µM
[3]; [29]
  GI50: > 100 µM
[3]; read-out: Log10 TGI
  IC (TGI): > 100 µM
[4]; [29]
  GI50: 0.191 µM
[4]; [30]
  IC (TGI): 0.49 µM
[5]; [29]
  GI50: > 100 µM
[5]; [30]
  IC (TGI): > 100 µM
[6]; [29]
  GI50: 93.3 µM
[6]; [30]
  IC (TGI): > 100 µM
[7]
  IC (TGI): 85.1 µM
[8]; [29]
  GI50: > 100 µM
[8]; [30]
  IC (TGI): > 100 µM
[9]; [29]
  GI50: > 100 µM
[9]; [30]
  IC (TGI): > 100 µM
[10]; [29]
  GI50: > 100 µM
[10]; [30]
  IC (TGI): > 100 µM
[11]; [29]
  GI50: 0.589 µM
[11]; [30]
  IC (TGI): > 100 µM
[12]; [29]
  GI50: > 100 µM
[12]; [30]
  IC (TGI): > 100 µM
[13]; [29]
  GI50: > 100 µM
[13]; [30]
  IC (TGI): > 100 µM
[14]; [29]
  GI50: > 100 µM
[14]; [30]
  IC (TGI): > 100 µM
[15]; [29]
  GI50: > 100 µM
[15]; [30]
  IC (TGI): > 100 µM
[16]; [29]
  GI50: 0.724 µM
[16]; [30]
  IC (TGI): > 100 µM
[17]; [29]
  GI50: > 100 µM
[17]; [30]
  IC (TGI): > 100 µM
[18]; [29]
  GI50: 0.741 µM
[18]; [30]
  IC (TGI): 15.1 µM
[19]; [29]
  GI50: > 100 µM
[19]; [30]
  IC (TGI): > 100 µM
[20]; [29]
  GI50: > 100 µM
[20]; [30]
  IC (TGI): > 100 µM
[21]; [29]
  GI50: > 100 µM
[21]; [30]
  IC (TGI): > 100 µM
[22]; [29]
  GI50: 0.676 µM
[22]; [30]
  IC (TGI): > 100 µM
[23]; [29]
  GI50: > 100 µM
[23]; [30]
  IC (TGI): > 100 µM
[24]; [29]
  GI50: > 100 µM
[24]; [30]
  IC (TGI): > 100 µM
[25]; [29]
  GI50: > 100 µM
[25]; [30]
  IC (TGI): > 100 µM
[26]
  IC (TGI): > 100 µM
[27]; NCI-H522, read-out: Log10 GI50 (converted)
  GI50: 20.9 µM
[27]; NCI-H522, read-out: Log10 TGI
  IC (TGI): 53.7 µM
[28]; read-out: Delta Log10 GI50, whole panel, line Delta (converted)
  GI50: 26.3 µM
[28]; read-out: Delta Log10 LC50, whole panel, line Delta (converted)
  CC50: 85.1 µM
